The text below walks through data of ChEMBL document CHEMBL3991601, “The target landscape of clinical kinase drugs” (Science, 2017).

Active and inactive are the calls of the source. Where only a bound is given, the exact number is not on record here.

In test [1] the target is Cyclin-dependent kinase 10 (Homo sapiens, UniProt Q15131).
Test [2] concerns the target Uncharacterized aarF domain-containing protein kinase 5 (Homo sapiens, UniProt Q3MIX3).
The target of test [3] is Nucleoside diphosphate kinase B (Homo sapiens, UniProt P22392).
The target of test [4] is Serine/threonine-protein kinase 38 (Homo sapiens, UniProt Q15208).
In test [5] the target is Cell division cycle 7-related protein kinase (Homo sapiens, UniProt O00311).
The target in test [6] is T1, Cyclin-dependent kinase-like 5 (Homo sapiens, UniProt O76039).
T1 sequence (O76039 whole entry): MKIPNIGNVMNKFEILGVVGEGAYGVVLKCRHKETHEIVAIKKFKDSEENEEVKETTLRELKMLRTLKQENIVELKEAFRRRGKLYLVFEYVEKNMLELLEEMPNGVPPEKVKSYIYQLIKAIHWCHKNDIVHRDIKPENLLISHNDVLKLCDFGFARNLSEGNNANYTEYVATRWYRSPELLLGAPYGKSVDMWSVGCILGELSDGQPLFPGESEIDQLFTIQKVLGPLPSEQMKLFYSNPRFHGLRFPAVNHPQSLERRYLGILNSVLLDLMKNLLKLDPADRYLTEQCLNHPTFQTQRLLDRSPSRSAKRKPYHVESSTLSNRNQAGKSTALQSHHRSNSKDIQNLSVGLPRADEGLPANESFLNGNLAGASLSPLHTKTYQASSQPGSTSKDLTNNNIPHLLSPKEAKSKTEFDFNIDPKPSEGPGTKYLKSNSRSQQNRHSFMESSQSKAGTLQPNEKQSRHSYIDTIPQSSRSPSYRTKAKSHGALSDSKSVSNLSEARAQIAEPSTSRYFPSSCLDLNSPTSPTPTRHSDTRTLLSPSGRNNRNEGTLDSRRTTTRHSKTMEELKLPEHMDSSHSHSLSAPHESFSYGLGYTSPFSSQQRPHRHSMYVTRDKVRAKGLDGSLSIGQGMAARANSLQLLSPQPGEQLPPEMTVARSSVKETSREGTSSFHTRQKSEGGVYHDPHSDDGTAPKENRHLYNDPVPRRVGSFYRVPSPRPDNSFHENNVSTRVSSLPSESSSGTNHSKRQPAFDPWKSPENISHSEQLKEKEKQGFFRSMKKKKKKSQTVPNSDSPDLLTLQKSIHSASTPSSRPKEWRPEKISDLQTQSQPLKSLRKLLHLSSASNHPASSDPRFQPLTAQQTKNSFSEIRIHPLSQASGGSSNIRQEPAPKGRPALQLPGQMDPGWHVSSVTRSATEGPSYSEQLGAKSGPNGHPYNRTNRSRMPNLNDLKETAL

Test [7] deals with ALK tyrosine kinase receptor (Homo sapiens, UniProt Q9UM73). The test is classed as subcellular, K-562, COLO 205, SK-N-BE(2) and MV-4-11, Cell lysate. The conditions noted are these: read-out: Kd apparent.
The target of test [8] is Activin receptor type-1-like (Homo sapiens, UniProt P37023).
For test [9], the target named is Serine/threonine-protein kinase pim-2 (Homo sapiens, UniProt Q9P1W9).
Test [10] has as its target Serine/threonine-protein kinase ATR (Homo sapiens, UniProt Q13535).
For test [11], the target named is Dual specificity protein kinase CLK4 (Homo sapiens, UniProt Q9HAZ1).
Test [12] deals with Tyrosine-protein kinase JAK2 (Homo sapiens, UniProt O60674).
Test [13] concerns the target Eukaryotic peptide chain release factor GTP-binding subunit ERF3B (Homo sapiens, UniProt Q8IYD1).
The target in test [14] is Mast/stem cell growth factor receptor Kit (Homo sapiens, UniProt P10721).
For test [15], the target named is Serine/threonine-protein kinase 38-like (Homo sapiens, UniProt Q9Y2H1).
In test [16] the target is Cyclin-dependent kinase 18 (Homo sapiens, UniProt Q07002).
In test [17] the target is Dual specificity tyrosine-phosphorylation-regulated kinase 1B (Homo sapiens, UniProt Q9Y463).
Test [18] deals with Tyrosine-protein kinase Fgr (Homo sapiens, UniProt P09769).
In test [19] the target is Cyclin-dependent kinase 9 (Homo sapiens, UniProt P50750).
Note: in the data inactive means no Kd found up to 30 µM.

Sequence of Cyclin-dependent kinase 18 (Q07002 whole entry): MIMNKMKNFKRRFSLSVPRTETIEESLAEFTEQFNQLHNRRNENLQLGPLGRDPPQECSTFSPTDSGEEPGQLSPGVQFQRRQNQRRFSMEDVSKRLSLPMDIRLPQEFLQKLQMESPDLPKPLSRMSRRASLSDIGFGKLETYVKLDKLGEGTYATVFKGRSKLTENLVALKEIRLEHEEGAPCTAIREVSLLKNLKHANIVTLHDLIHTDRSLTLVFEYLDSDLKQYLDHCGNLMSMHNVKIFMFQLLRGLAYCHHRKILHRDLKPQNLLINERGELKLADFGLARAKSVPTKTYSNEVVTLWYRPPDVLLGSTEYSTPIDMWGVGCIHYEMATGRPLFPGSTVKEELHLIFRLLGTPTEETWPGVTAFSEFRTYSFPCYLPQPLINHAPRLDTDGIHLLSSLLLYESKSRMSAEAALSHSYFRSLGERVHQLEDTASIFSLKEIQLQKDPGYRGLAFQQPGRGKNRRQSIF
Sequence of Mast/stem cell growth factor receptor Kit (P10721 whole entry): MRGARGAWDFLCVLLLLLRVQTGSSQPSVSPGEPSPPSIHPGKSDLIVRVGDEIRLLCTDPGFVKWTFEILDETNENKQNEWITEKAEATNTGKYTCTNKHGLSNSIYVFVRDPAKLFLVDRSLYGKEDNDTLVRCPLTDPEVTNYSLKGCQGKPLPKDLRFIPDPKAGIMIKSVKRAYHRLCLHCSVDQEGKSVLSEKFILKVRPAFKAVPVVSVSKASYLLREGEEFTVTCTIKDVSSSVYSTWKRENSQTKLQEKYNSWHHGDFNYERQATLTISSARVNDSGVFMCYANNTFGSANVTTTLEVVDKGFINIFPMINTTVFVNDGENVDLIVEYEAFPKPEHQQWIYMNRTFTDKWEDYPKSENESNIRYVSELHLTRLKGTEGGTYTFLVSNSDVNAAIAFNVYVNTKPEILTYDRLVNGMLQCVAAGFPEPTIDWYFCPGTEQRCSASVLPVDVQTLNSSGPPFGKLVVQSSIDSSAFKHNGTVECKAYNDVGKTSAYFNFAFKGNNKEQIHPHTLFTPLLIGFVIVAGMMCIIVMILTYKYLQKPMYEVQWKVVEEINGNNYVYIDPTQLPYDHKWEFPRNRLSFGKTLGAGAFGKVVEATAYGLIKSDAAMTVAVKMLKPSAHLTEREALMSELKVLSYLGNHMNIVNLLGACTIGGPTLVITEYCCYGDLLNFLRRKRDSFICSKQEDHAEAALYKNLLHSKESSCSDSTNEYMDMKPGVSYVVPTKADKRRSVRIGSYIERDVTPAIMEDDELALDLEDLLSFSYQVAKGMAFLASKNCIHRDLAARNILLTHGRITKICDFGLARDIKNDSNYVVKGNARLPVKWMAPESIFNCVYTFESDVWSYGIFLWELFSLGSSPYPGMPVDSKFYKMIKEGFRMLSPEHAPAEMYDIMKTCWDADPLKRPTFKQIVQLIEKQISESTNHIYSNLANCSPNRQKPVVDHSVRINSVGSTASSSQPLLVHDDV
Sequence of Serine/threonine-protein kinase 38-like (Q9Y2H1 whole entry): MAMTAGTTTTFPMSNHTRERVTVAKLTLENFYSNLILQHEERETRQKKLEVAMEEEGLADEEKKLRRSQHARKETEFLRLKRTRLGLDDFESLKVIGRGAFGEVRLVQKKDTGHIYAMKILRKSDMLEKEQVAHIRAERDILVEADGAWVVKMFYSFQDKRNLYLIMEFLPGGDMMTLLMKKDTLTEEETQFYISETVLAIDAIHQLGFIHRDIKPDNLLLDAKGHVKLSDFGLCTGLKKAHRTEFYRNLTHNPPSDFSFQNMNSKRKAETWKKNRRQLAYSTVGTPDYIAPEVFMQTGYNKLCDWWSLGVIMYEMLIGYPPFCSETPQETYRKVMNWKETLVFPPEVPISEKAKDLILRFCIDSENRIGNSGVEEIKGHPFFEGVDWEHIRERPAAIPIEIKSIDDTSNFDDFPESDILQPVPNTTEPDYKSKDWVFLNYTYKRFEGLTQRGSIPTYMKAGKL
Sequence of Cell division cycle 7-related protein kinase (O00311 whole entry): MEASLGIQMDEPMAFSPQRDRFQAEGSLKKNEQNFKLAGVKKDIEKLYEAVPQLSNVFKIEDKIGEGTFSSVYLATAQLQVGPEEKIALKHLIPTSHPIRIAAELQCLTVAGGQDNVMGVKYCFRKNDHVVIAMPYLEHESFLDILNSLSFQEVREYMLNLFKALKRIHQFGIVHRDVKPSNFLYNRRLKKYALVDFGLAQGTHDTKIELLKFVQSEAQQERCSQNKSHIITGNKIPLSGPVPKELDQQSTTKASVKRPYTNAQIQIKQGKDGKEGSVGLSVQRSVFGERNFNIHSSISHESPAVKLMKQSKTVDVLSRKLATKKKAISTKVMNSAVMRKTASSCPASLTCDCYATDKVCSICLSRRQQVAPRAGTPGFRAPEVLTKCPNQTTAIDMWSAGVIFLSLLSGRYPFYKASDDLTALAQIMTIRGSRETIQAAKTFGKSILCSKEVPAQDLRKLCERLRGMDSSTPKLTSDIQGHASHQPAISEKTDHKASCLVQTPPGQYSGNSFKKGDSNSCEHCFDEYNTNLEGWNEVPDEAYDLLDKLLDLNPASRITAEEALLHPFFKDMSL
Sequence of Activin receptor type-1-like (P37023 whole entry): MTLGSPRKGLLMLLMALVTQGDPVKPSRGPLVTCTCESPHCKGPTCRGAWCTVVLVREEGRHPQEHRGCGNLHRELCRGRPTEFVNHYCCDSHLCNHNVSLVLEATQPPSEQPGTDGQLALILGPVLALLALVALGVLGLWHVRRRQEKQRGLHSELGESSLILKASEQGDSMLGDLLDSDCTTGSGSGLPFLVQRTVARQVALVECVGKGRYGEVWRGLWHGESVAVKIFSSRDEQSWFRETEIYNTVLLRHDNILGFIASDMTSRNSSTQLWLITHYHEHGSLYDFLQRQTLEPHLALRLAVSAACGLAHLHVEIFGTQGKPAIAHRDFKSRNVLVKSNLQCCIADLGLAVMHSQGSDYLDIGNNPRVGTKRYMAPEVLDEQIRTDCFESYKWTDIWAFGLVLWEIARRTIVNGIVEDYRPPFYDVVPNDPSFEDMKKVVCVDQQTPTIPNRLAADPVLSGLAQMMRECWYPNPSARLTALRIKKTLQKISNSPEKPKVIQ
Sequence of Nucleoside diphosphate kinase B (P22392 whole entry): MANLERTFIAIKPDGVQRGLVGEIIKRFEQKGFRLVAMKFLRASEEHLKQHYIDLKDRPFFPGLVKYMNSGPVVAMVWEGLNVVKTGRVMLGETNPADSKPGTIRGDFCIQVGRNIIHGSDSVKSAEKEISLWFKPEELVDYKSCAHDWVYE
Sequence of Tyrosine-protein kinase JAK2 (O60674 whole entry): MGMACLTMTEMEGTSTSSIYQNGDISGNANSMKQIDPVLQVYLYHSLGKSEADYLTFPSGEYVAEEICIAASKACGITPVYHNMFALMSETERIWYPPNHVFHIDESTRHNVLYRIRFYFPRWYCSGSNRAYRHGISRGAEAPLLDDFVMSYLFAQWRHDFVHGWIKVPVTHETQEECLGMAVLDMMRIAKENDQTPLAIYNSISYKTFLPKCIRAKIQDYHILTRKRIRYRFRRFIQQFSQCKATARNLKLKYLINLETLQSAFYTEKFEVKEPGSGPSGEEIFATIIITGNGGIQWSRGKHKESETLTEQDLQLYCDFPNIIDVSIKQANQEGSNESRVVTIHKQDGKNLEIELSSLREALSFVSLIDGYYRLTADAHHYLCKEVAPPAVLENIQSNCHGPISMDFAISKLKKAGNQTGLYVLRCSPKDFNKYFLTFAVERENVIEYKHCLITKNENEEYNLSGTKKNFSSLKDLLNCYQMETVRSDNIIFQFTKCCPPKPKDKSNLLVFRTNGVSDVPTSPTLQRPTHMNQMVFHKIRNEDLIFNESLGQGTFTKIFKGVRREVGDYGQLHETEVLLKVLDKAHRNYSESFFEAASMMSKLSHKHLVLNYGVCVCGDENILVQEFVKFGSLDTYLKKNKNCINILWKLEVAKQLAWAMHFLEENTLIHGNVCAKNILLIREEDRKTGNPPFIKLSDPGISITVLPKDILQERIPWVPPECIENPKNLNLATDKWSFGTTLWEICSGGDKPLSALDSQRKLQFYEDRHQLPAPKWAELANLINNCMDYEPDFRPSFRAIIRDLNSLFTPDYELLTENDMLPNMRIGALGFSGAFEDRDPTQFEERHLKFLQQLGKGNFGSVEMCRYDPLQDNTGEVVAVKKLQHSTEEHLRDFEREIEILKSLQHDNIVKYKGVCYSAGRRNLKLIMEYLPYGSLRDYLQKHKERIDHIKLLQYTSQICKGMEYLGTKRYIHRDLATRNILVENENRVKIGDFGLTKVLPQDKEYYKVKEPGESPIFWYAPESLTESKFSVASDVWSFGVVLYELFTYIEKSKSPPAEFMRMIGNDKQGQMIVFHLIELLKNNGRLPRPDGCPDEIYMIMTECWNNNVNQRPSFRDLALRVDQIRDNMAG
Sequence of Serine/threonine-protein kinase pim-2 (Q9P1W9 whole entry): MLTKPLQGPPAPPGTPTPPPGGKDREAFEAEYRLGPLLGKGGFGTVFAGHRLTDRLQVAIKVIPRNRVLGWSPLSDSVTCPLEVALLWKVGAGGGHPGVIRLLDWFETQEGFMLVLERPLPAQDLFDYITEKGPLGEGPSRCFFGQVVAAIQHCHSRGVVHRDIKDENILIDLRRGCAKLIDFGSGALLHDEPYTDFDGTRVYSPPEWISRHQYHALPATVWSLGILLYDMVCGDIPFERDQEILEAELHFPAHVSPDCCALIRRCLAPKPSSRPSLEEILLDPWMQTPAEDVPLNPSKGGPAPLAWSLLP
Sequence of Cyclin-dependent kinase 10 (Q15131 whole entry, the tested form may be a part): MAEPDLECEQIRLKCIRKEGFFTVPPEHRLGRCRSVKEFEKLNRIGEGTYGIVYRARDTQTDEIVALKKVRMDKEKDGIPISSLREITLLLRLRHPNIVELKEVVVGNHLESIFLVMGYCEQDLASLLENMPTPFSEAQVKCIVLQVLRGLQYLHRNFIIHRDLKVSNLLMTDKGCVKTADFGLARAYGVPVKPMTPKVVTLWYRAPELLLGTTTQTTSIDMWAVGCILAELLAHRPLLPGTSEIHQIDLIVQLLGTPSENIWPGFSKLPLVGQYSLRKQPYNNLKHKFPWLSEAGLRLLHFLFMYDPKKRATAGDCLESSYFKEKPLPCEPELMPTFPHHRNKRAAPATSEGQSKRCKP

Take `COc1cc(Nc2ncc3c(n2)-c2ccc(Cl)cc2C(c2c(F)cccc2OC)=NC3)ccc1C(=O)O` [ALISERTIB]: the Kd in test [1], in test [2] and in test [3] was > 30 µM (inactive) in each case.
On to `O=C(Nc1c[nH]nc1-c1nc2cc(CN3CCOCC3)ccc2[nH]1)NC1CC1` [AT-9283], for which the Kd was 0.009 µM in test [1]; > 30 µM (inactive) in test [4]; 0.511 µM in test [5]; > 30 µM (inactive) in test [6]; > 30 µM (inactive) in test [7]; > 30 µM (inactive) in test [2]. In addition, the Kd in test [8] is 0.015 µM (active); in test [9] it was > 30 µM (inactive).
For `CCn1c(C(=O)N(C2CC2)C2CC2)cc2c3c(ncn3C)c(Nc3cc(C)n(C)n3)nc21` [BMS-911543], the Kd in [5], in [10], in [6], in [11], in test [7] and in test [12] was > 30 µM (inactive) each time. Moreover, the Kd in [2], in test [8] and in [13] was > 30 µM (inactive) each time.
`COc1c(OCCCN2CCOCC2)ccc2c1N=C(NC(=O)c1cnc(N)nc1)N1CCN=C21` [COPANLISIB]: the Kd in test [14], in test [4], in test [10], in test [6], in test [11] and in [2] was > 30 µM (inactive) each time. Moreover, the Kd in [15], in [16], in test [17] and in [13] was > 30 µM (inactive) in each case.
On to `C#Cc1cccc(Nc2ncnc3cc(OC)c(OCCCCCCC(=O)NO)cc23)c1` [CUDC-101], for which the Kd in test [5], in [18], in [6], in [11], in [12] and in test [2] was > 30 µM (inactive) each time. The Kd was 0.142 µM (active) in test [3], > 30 µM (inactive) in [8] and > 30 µM (inactive) in test [9].
Turning to `CNC(=O)c1nn(C)c2c1C(C)(C)Cc1cnc(Nc3ccc(N4CCN(C)CC4)cc3)nc1-2` [MILCICLIB], the Kd in test [5] was > 30 µM (inactive); in test [10], > 30 µM (inactive); in test [6] it was > 30 µM (inactive); in [11], 0.018 µM (active); in test [2] it was > 30 µM (inactive); in test [3], > 30 µM (inactive). Also, the Kd in [9] and in test [15] was > 30 µM (inactive) throughout.
`CN(C[C@@H]1COCCO1)S(=O)(=O)Nc1ccc2ccc3ncc(-c4cnn(C)c4)cc3c(=O)c2c1` [MK-2461]: the Kd in test [4], in test [5], in test [7], in [9] and in [16] was > 30 µM (inactive) each time.
Regarding `FC(F)(F)c1ccc(/C=C/c2nc(COc3ccc(CCCCn4ccnn4)cc3)co2)cc1` [MUBRITINIB], the Kd in test [1], in test [10], in [6], in [11], in test [2] and in [3] was > 30 µM (inactive) each time. Further, the Kd in test [9] and in test [15] was > 30 µM (inactive) in each case.
`COc1ncc(-c2ccc3nccc(-c4ccnnc4)c3c2)cc1NS(=O)(=O)c1ccc(F)cc1F` [OMIPALISIB]: the Kd in [14], in test [4], in [5], in [10], in test [11] and in test [7] was > 30 µM (inactive) each time. In addition, the Kd in test [2], in test [3] and in test [15] was > 30 µM (inactive) each time.
Take `Cc1nc(Nc2n[nH]c3c2CN(C(=O)N[C@H](CN(C)C)c2ccccc2)C3(C)C)c2sccc2n1` [PF-03758309]: the Kd was > 30 µM (inactive) in test [1]; 0.075 µM in test [4]; > 30 µM (inactive) in [5]; > 30 µM (inactive) in test [10]; 1.93 µM (active) in test [6]; 0.013 µM (active) in test [11]. In addition, the Kd in test [2] is > 30 µM (inactive); in test [15], > 30 µM (inactive); in test [16] it was 0.067 µM (active).
For `CO[C@H]1C[C@@H]2CC[C@@H](C)[C@@](O)(O2)C(=O)C(=O)N2CCCC[C@H]2C(=O)O[C@H]([C@H](C)C[C@@H]2CC[C@@H](OP(C)(C)=O)[C@H](OC)C2)CC(=O)[C@H](C)/C=C(\C)[C@@H](O)[C@@H](OC)C(=O)[C@H](C)C[C@H](C)/C=C/C=C/C=C/1C` [RIDAFOROLIMUS], the Kd in test [1], in test [5], in [6], in [11], in test [12] and in [2] was > 30 µM (inactive) in each case. In addition, the Kd was > 30 µM (inactive) in test [19]; > 30 µM (inactive) in test [9]; > 30 µM (inactive) in [15]; 1.26 µM in test [17]; > 30 µM (inactive) in [13].
As to `O=c1[nH]ccc2cc(OC3CCNCC3)ccc12` [SAR-407899 FREE BASE], the Kd in [14], in [4], in [10], in test [6], in [11] and in test [2] was > 30 µM (inactive) each time. For the same molecule, the Kd in test [9] and in [13] was > 30 µM (inactive) each time.
Regarding `CN1CCN(CCOc2cc(OC3CCOCC3)c3c(Nc4c(Cl)ccc5c4OCO5)ncnc3c2)CC1` [SARACATINIB], the Kd in test [1], in test [10], in test [12], in test [3] and in test [9] was > 30 µM (inactive) throughout.
Take `CO[C@H]1C[C@@H]2CC[C@@H](C)[C@@](O)(O2)C(=O)C(=O)N2CCCC[C@H]2C(=O)O[C@H]([C@H](C)C[C@@H]2CC[C@@H](OC(=O)C(C)(CO)CO)[C@H](OC)C2)CC(=O)[C@H](C)/C=C(\C)[C@@H](O)[C@@H](OC)C(=O)[C@H](C)C[C@H](C)/C=C/C=C/C=C/1C` [TEMSIROLIMUS]: the Kd in [1], in test [5], in test [10], in [18], in [6] and in test [11] was > 30 µM (inactive) throughout. Besides, the Kd in test [7], in test [12], in test [19], in [9], in test [15] and in [13] was > 30 µM (inactive) each time.
In the case of `C[C@@H](N)c1ccc(C(=O)Nc2ccnc3[nH]ccc23)cc1` [Y-39983], the Kd in test [14], in test [4], in test [5], in test [10], in test [6] and in test [11] was > 30 µM (inactive) throughout. Moreover, the Kd in [15] is > 30 µM (inactive).
